The subject of this experiment is Wistar rats. Put plainly: IPGTT after acute administration in lean rats. Type of experiment: in vivo. As to conditions: fasted male Wistar rats, 5 mg/kg, vs saline. The protocol: IPGTT was performed in overnight fasted male Wistar rats.
IPGTT was performed in overnight fasted male Wistar rats (Antab, Praha, Czech Republic) at age of 14 weeks. […] 15 min later, 2 g/kg glucose solution was administered IP. Blood glucose was then measured at 15, 30, 60, and 120 min from glucose injection.
FIG. 4 illustrates a plot of glucose levels after acute administration of palm-PrRP31 in rats. IPGTT was performed in overnight fasted male Wistar rats.

Molecules are shown by their SMILES.

On to `CCCCCCCCCCCCCCCC(=O)N[C@@H](CO)C(=O)N[C@@H](CCCNC(=N)N)C(=O)N[C@H](C(=O)N[C@@H](Cc1c[nH]cn1)C(=O)N[C@@H](CCCNC(=N)N)C(=O)N[C@@H](Cc1c[nH]cn1)C(=O)N[C@@H](CO)C(=O)N[C@@H](CCSC)C(=O)N[C@@H](CCC(=O)O)C(=O)N[C@H](C(=O)N[C@@H](CCCNC(=N)N)C(=O)N[C@H](C(=O)N1CCC[C@H]1C(=O)N[C@@H](CC(=O)O)C(=O)N[C@H](C(=O)N[C@@H](CC(N)=O)C(=O)N1CCC[C@H]1C(=O)N[C@@H](C)C(=O)N[C@@H](Cc1c[nH]c2ccccc12)C(=O)N[C@@H](Cc1ccc(O)cc1)C(=O)N[C@@H](C)C(=O)N[C@@H](CO)C(=O)N[C@@H](CCCNC(=N)N)C(=O)NCC(=O)N[C@H](C(=O)N[C@@H](CCCNC(=N)N)C(=O)N1CCC[C@H]1C(=O)N[C@H](C(=O)NCC(=O)N[C@@H](CCCNC(=N)N)C(=O)N[C@@H](Cc1ccccc1)C(N)=O)C(C)C)[C@@H](C)CC)[C@@H](C)CC)[C@@H](C)O)[C@@H](C)CC)[C@@H](C)O` [Analog 43], for which the “Large spike in blood glucose in IPGTT” value is on record as “did not”.

Values taken from patent US10350271B2, “Lipidated peptides for lowering blood glucose” (USTAV ORGANICKE CHEMIE A BIOCHEMIE AKADEMIE VED CR, V.V.I., priority 2014, dated 2019).
